Laboratory results from patent US20080280838A1, “Composition Containing Ginsenoside F1 and Egcg for Preventing Skin Damage” (Amorepacific Corporation, priority 2004, published 2008).

What was measured:
Bcl-2 = test: Western-blot analysis of UV-induced down-regulation of Bcl-2 expression in HaCaT cells; assay type: cell-based, Human; settings: 60 mJ/cm^2 UVB
Experimental: (§1) Human keratinocyte HaCaT cell line was provided by Dr. N. E. Fusenig (Deutsches Krebsforschungszentrum(DKFZ), Heidelberg, Germany) and cultured in DMEM (Dulbecco's modified Eagle's medium, Gibco 1210-0038) supplemented with 10% fetal bovine serum. Cultures were incubated at 37° C., in humidified air with 5% CO2.
Cell lines cultured in Step 1 were treated with trypsin to give a single-cell suspension and seeded into 6-well microplates at […] per well, then cultured for 24 hours. Subsequently, the culture medium was refreshed with serum-free DMEM and cells were cultured for another 24 hours. The microplates were then treated with 2 μM ginsenoside F1; 10 μM EGCG; a combination of 2 μM ginsenoside F1 and 10 μM EGCG; 5 μM ginsenoside F1; and 50 μM EGCG, respectively. Ginsenoside F1 was dissolved in 100% ethanol at a 1/1000-fold concentration to the medium and EGCG (Sigma) was dissolved in DMSO at a 1/1000-fold concentration to the medium. […]
24 hours after UV irradiation, cells treated with each compound or untreated were washed with PBS and harvested by treating with trypsin. […] Supernatants were collected by centrifugation at 15,000×g for 10 minutes at 4° C. and protein concentrations were determined using BIO-Rad Protein Dye Reagent™. […] The bands on the film were scanned using PowerLook 2100 XL (UMAX) and analyzed with ImageMaster 2D Elite software (Amersham Biosciences).

HaCaT cells = test: MTT-reduction assay: antiapoptotic effect against UV-induced apoptosis in HaCaT cells; assay type: cell-based, Human; settings: 60 mJ/cm^2 UVB; for UV-caused apoptotic cell population compared with untreated control cells: 24 hours after UV irradiation
Experimental: as §1
Cell lines cultured in Step 1 were treated with trypsin to give a single-cell suspension and seeded into a 6-well microplate at 2×10^5 cells per well, then cultured for 24 hours. Subsequently, the culture medium was refreshed with serum-free DMEM and cells were cultured for another 24 hours. The microplate was then treated with 2 μM ginsenoside F1; 10 μM EGCG; a combination of 2 μM ginsenoside F1 and 10 μM EGCG; 5 μM ginsenoside F1; and 50 μM EGCG in separate wells.
For reference, ginsenoside F1 was dissolved in 100% ethanol at a 1/1000-fold concentration to the medium and EGCG (Sigma) was dissolved in dimethyl sulfoxide (DMSO) at a 1/1000-fold concentration to the medium, and then added at the required amount to the culture mediums.
After 24-hour treatment of each test sample, each microplate was washed with phosphate buffered saline (PBS) and exposed to 60 mJ/cm^2 of UVB in the presence of PBS. PBS was then removed and the culture medium was refreshed with a medium containing each compound at the corresponding concentration. As a control, untreated cells were cultured in the same way.
24 hours after UV irradiation, to the microplates treated with each compound or untreated was added 3-(4,5-dimethyl thiazol-2-yl)-2,5-diphenyltetrazolium bromide (MTT, Sigma) solution, and then the cells were cultured at 37° C. for 4 hours. DMSO was added and dissolved completely. The optical density (OD) of formazan formed at 540 nm was measured using an ELISA reader (Thermo Max, Molecular Devices Co.). Cell viability in each test group was evaluated as a relative value, considering OD of untreated control cells as 100%.

Row | SMILES | Bcl-2 expression compared with the untreated control group (Bcl-2; 10 μM EGCG alone) | UV-caused apoptotic cell population compared with untreated control cells (HaCaT cells; 10 μM EGCG alone) | antiapoptotic effect relative to combined treatment (2 μM ginsenoside F1 and 10 μM EGCG) (HaCaT cells; 50 μM EGCG alone) | Bcl-2 expression compared with the untreated control group (Bcl-2; 2 μM ginsenoside F1 alone) | UV-caused apoptotic cell population compared with untreated control cells (HaCaT cells; 2 μM ginsenoside F1 alone) | antiapoptotic effect relative to combined treatment (2 μM ginsenoside F1 and 10 μM EGCG) (HaCaT cells; 5 μM ginsenoside F1 alone)
1 | O=C(O[C@@H]1Cc2c(O)cc(O)cc2O[C@@H]1c1cc(O)c(O)c(O)c1)c1cc(O)c(O)c(O)c1 [EGCG, (−)epigallocatechin-3-gallate] | no difference | no difference | similar |  |  | 
2 | CC(C)=CCC[C@](C)(O[C@@H]1O[C@H](CO)[C@@H](O)[C@H](O)[C@H]1O)[C@H]1CC[C@]2(C)[C@@H]1[C@H](O)C[C@@H]1[C@@]3(C)CC[C@H](O)C(C)(C)[C@@H]3[C@@H](O)C[C@]12C [ginsenoside F1, 20-O-β-D-glucopyranosyl-20(S)-protopanaxatriol] |  |  |  | no difference | no difference | similar
